“Also recorded” adds a separate entry of the source.

This test has as its system H. pylori. The experiment in a line: therapeutic treatment in chronic H. pylori mouse infection model (cfu counts, cagL PCR). It counts as in vivo, C57B/L6 mice. The following applies: for reduction of colony-forming units (cfus) / bacterial loads in stomach: metronidazole 14.3 mg/kg/day, intragastric gavage. The method, then: 6-8 weeks old specific pathogen-free C57B/L6 mice were obtained from Charles River Laboratories. They were acclimatized to the new surroundings for one week before starting the assays. For the whole duration of the experiment, mice had access to sterile chow and sterile water ad libitum. In week one of the experiment, H. pylori was administered at 3×10^8 bacteria per mouse per inoculum (100 µl) on two days with one day of break in between. The proof-of-principle treatment was started two weeks after the end of the inoculation week, assuming a stable infection at this time point. The mice were treated in separate groups (8-14 animals per group), as outlined in the results, with compound(s), antibiotic (metronidazole at 14.3 mg/kg/day), a combination of both antibiotic and compound (for concentrations, see Results), or mock-treated once daily over seven consecutive days by intra-gastric gavage. After the treatment week, the mice were kept for another two weeks under normal housing and feeding conditions with sterilized chow and sterile water ad libitum. At the end of the assay period (week seven), the mice were necropsied by cervical dislocation under CO2 anesthesia. The animal experiments were authorized under German federal law by the LAVES (Lower Saxony Government Authority).
Then, BL2 was further tested for therapeutic efficacy in a mouse model of chronic H. pylori infection (Fig. 5). Six groups of mice (10 mice per group in each of the four infected and/or treated groups, and six mice in both of the control groups) were established in this mouse treatment trial. For the treatment groups, mice were infected in week one (using ca. 3×10^8 bacteria per animal; Methods), and the chronic infection was manifested for two more weeks. The once-daily treatment (intragastric gavage) started in week four on seven consecutive days. For the treatment groups, three H. pylori-infected groups were evaluated in parallel. One dose of treatment was given daily.
Group one was treated with metronidazole (14.3 mg/kg/day) only, an established anti-H. pylori antibiotic. The antibiotic concentration corresponds to concentrations routinely used in human treatment. Group two was treated with metronidazole (dosed at 14.3 mg/kg/day) and BL2 (10 mg/kg/day) in combination, and group three received BL2 (10 mg/kg/day) only. In addition, one infected and mock-treated group was kept as positive control, and two mock-infected groups were set aside, one for administering BL2 only (10 mg/kg/day; microbiota compound control) and one which was mock-infected and mock-treated (microbiota null control).
The read-out of successful treatment was the reduction of colony-forming units (cfus) of bacteria in infected and treated mice, over infected, non-treated, mice, at the end of the experiment. […] All mice in the infected positive control group were colonized (both cfu counts and PCR-positive), although the cfu counts in three positive animals were rather low.

[1] abbreviates: BL2 10 mg/kg/day, once daily, 7 days, versus infected control.

For the compound `Cn1c(CSC(=N)N)c(Cl)c(=O)n1-c1ccccc1` [Active 2], the “reduction of colony-forming units (cfus) / bacterial loads in stomach” value is, setting by setting: (BL2 10 mg/kg/day, once daily, 7 days, versus infected control, listed as BL2) “therapeutically effective; also recorded: significant activity in vivo; also recorded: significant therapeutic activity; also recorded: significantly effective in reducing bacterial loads”; (BL2 10 mg/kg/day, once daily, 7 days, versus infected control, listed as active 2/BL2) “therapeutically active”. For the same compound, under setting [1], the “cfu counts in the antrum” value is on record as “statistically significant reduction of cfu counts in the antrum”. For the same compound, the “cfus in the corpus” value under setting [1] is “trend towards reduced cfus”. Also, where the note is “two weeks post-treatment, listed as BL2”, the “gene-specific (cagL) PCR signal in stomach homogenates” value is given as “strong reduction of gene-specific PCR signal; also recorded: below detection levels”.

The values above are taken from patent publication EP3892734B1, “SCREENING METHODS AND THERAPEUTIC APPLICATIONS BASED ON BACTERIAL MOTILITY INHIBITION” (Ludwig-Maximilians-Universität München, priority 2020, dated 2021).
